From PubChem BioAssay AID1963435 (Molecular Pharmacology Branch, DTP, NCI, 2024)

Tested on: PANC-1 complex spheroid growth, percent test/control
Test: Anticancer human tumor PANC-1 cell line growth inhibition [Asc];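 further: spheroids exposed to agents for 7 days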;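 on viability, T/C: percent viability relative to DMSO vehicle wells taken as 100%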
Settings: for IC50: curve of first compound; for viability, T/C: stronger effect = lower value
Procedure, shortened: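 Tumor cells were grown as multicellular spheroids with stromal HUVEC and mesenchymal stem cells and treated singly or in combination. Concentrations fell in half-log steps from the clinical Cmax, or from 10 microM where none was known.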

[1] = second compound 0.0316 µM, first compound 0.00316 µM
[2] = second compound 0.0316 µM, first compound 0.01 µM
[3] = second compound 0.0316 µM, first compound 0.0316 µM
[4] = second compound 0.0316 µM, first compound 0.1 µM
[5] = second compound 0.1 µM, first compound 0.00316 µM
[6] = second compound 0.1 µM, first compound 0.01 µM
[7] = second compound 0.1 µM, first compound 0.0316 µM
[8] = second compound 0.1 µM, first compound 0.1 µM
[9] = second compound 0.316 µM, first compound 0.00316 µM
[10] = second compound 0.316 µM, first compound 0.01 µM
[11] = second compound 0.316 µM, first compound 0.0316 µM
[12] = second compound 0.316 µM, first compound 0.1 µM
[13] = second compound 1 µM, first compound 0.00316 µM
[14] = second compound 1 µM, first compound 0.01 µM
[15] = second compound 1 µM, first compound 0.0316 µM
[16] = second compound 1 µM, first compound 0.1 µM
[17] = second compound 3.16 µM, first compound 0.00316 µM
[18] = second compound 3.16 µM, first compound 0.01 µM
[19] = second compound 3.16 µM, first compound 0.0316 µM
[20] = second compound 3.16 µM, first compound 0.1 µM
[21] = second compound 10 µM, first compound 0.00316 µM
[22] = second compound 10 µM, first compound 0.01 µM
[23] = second compound 10 µM, first compound 0.0316 µM
[24] = second compound 10 µM, first compound 0.1 µM

Work on `COc1c(OCCCN2CCOCC2)ccc2c3n(c(=NC(=O)c4cnc(N)nc4)nc12)CCN3` + Cc1c(S(C)(=O)=O)c(-c2cc(F)cc(N3CCN(c4ccc(NS(=O)(=O)c5ccc(NC(CCN6CCC(C(=O)OCCCP(=O)(O)O)CC6)CSc6ccccc6)c(S(=O)(=O)C(F)(F)F)c5)cc4)CC3)c2)c(-c2ccc(Cl)cc2)n1C(C)C yielded an IC50 (second compound 0.0316 µM) of 536 nM, an IC50 (second compound 0.1 µM) of 420 nM and an IC50 (second compound 0.316 µM) of 314 nM. For the same compound, the IC50 (second compound 1 µM) was 304 nM, the IC50 (second compound 3.16 µM) was 282 nM and the IC50 (second compound 10 µM) was 264 nM. The viability, T/C [1] was 103%, the viability, T/C [2] was 98.5% and the viability, T/C [3] was 95.7%. For the same compound, the viability, T/C [4] was 73.7%, the viability, T/C (second compound 0.0316 µM, first compound 0.316 µM) was 69.4% and the viability, T/C (second compound 0.0316 µM, first compound 1 µM) was 32.6%. It also gave a viability, T/C [5] of 98%, a viability, T/C [6] of 105% and a viability, T/C [7] of 94.7%. For the same compound, the viability, T/C [8] was 72.8%, the viability, T/C (second compound 0.1 µM, first compound 0.316 µM) was 60.2% and the viability, T/C (second compound 0.1 µM, first compound 1 µM) was 28.5%. The viability, T/C [9] was 107%, the viability, T/C [10] was 106% and the viability, T/C [11] was 91.1%. For the same compound, the viability, T/C [12] was 58.2%, the viability, T/C (second compound 0.316 µM, first compound 0.316 µM) was 59% and the viability, T/C (second compound 0.316 µM, first compound 1 µM) was 25.7%. For the same compound, the viability, T/C [13] was 104%, the viability, T/C [14] was 97.8% and the viability, T/C [15] was 99.8%. It also gave a viability, T/C [16] of 67.4%, a viability, T/C (second compound 1 µM, first compound 0.316 µM) of 52.9% and a viability, T/C (second compound 1 µM, first compound 1 µM) of 24.1%. The viability, T/C [17] was 122%, the viability, T/C [18] was 106% and the viability, T/C [19] was 86.8%. For the same compound, the viability, T/C [20] was 65.8%, the viability, T/C (second compound 3.16 µM, first compound 0.316 µM) was 53.8% and the viability, T/C (second compound 3.16 µM, first compound 1 µM) was 23.9%. The viability, T/C [21] was 171%, the viability, T/C [22] was 198% and the viability, T/C [23] was 131%. For the same compound, the viability, T/C [24] was 78.1%, the viability, T/C (second compound 10 µM, first compound 0.316 µM) was 52.5% and the viability, T/C (second compound 10 µM, first compound 1 µM) was 31.7%.
With `NC(=O)C(=Cn1cnc(-c2cc(C(F)(F)F)cc(C(F)(F)F)c2)n1)c1cncnc1` + Cc1c(S(C)(=O)=O)c(-c2cc(F)cc(N3CCN(c4ccc(NS(=O)(=O)c5ccc(NC(CCN6CCC(C(=O)OCCCP(=O)(O)O)CC6)CSc6ccccc6)c(S(=O)(=O)C(F)(F)F)c5)cc4)CC3)c2)c(-c2ccc(Cl)cc2)n1C(C)C the IC50 (second compound 0.0316 µM) was over 300 nM, the IC50 (second compound 0.1 µM) was over 300 nM and the IC50 (second compound 0.316 µM) was over 300 nM. For the same compound, the IC50 (second compound 1 µM) was over 300 nM, the IC50 (second compound 3.16 µM) was over 300 nM and the IC50 (second compound 10 µM) was over 300 nM. The viability, T/C (second compound 0.0316 µM, first compound 0.000949 µM) was 103%, the viability, T/C (second compound 0.0316 µM, first compound 0.003 µM) was 90.5% and the viability, T/C (second compound 0.0316 µM, first compound 0.00949 µM) was 93.7%. It also gave a viability, T/C (second compound 0.0316 µM, first compound 0.03 µM) of 91%, a viability, T/C (second compound 0.0316 µM, first compound 0.0949 µM) of 118% and a viability, T/C (second compound 0.0316 µM, first compound 0.3 µM) of 90.8%. The viability, T/C (second compound 0.1 µM, first compound 0.000949 µM) was 96.3%, the viability, T/C (second compound 0.1 µM, first compound 0.003 µM) was 102% and the viability, T/C (second compound 0.1 µM, first compound 0.00949 µM) was 97.4%. The viability, T/C (second compound 0.1 µM, first compound 0.03 µM) was 102%, the viability, T/C (second compound 0.1 µM, first compound 0.0949 µM) was 121% and the viability, T/C (second compound 0.1 µM, first compound 0.3 µM) was 84.3%. For the same compound, the viability, T/C (second compound 0.316 µM, first compound 0.000949 µM) was 105%, the viability, T/C (second compound 0.316 µM, first compound 0.003 µM) was 93.6% and the viability, T/C (second compound 0.316 µM, first compound 0.00949 µM) was 101%. For the same compound, the viability, T/C (second compound 0.316 µM, first compound 0.03 µM) was 98.5%, the viability, T/C (second compound 0.316 µM, first compound 0.0949 µM) was 122% and the viability, T/C (second compound 0.316 µM, first compound 0.3 µM) was 99.9%. The viability, T/C (second compound 1 µM, first compound 0.000949 µM) was 105%, the viability, T/C (second compound 1 µM, first compound 0.003 µM) was 101% and the viability, T/C (second compound 1 µM, first compound 0.00949 µM) was 97.7%. The viability, T/C (second compound 1 µM, first compound 0.03 µM) was 94%, the viability, T/C (second compound 1 µM, first compound 0.0949 µM) was 130% and the viability, T/C (second compound 1 µM, first compound 0.3 µM) was 84.5%. The viability, T/C (second compound 3.16 µM, first compound 0.000949 µM) was 108%, the viability, T/C (second compound 3.16 µM, first compound 0.003 µM) was 94.5% and the viability, T/C (second compound 3.16 µM, first compound 0.00949 µM) was 98.1%. The viability, T/C (second compound 3.16 µM, first compound 0.03 µM) was 104%, the viability, T/C (second compound 3.16 µM, first compound 0.0949 µM) was 120% and the viability, T/C (second compound 3.16 µM, first compound 0.3 µM) was 79.3%. For the same compound, the viability, T/C (second compound 10 µM, first compound 0.000949 µM) was 152%, the viability, T/C (second compound 10 µM, first compound 0.003 µM) was 192% and the viability, T/C (second compound 10 µM, first compound 0.00949 µM) was 181%. It also gave a viability, T/C (second compound 10 µM, first compound 0.03 µM) of 205%, a viability, T/C (second compound 10 µM, first compound 0.0949 µM) of 196% and a viability, T/C (second compound 10 µM, first compound 0.3 µM) of 86.7%.
`NC1CCC(NC2CC2c2ccccc2)CC1` (stereo unspecified) + Cc1c(S(C)(=O)=O)c(-c2cc(F)cc(N3CCN(c4ccc(NS(=O)(=O)c5ccc(NC(CCN6CCC(C(=O)OCCCP(=O)(O)O)CC6)CSc6ccccc6)c(S(=O)(=O)C(F)(F)F)c5)cc4)CC3)c2)c(-c2ccc(Cl)cc2)n1C(C)C was tested, and the IC50 (second compound 0.0316 µM) was over 100 nM, the IC50 (second compound 0.1 µM) was over 100 nM and the IC50 (second compound 0.316 µM) was over 100 nM. It also gave an IC50 (second compound 1 µM) of over 100 nM, an IC50 (second compound 3.16 µM) of over 100 nM and an IC50 (second compound 10 µM) of over 100 nM. It also gave a viability, T/C (second compound 0.0316 µM, first compound 0.000316 µM) of 109%, a viability, T/C (second compound 0.0316 µM, first compound 0.001 µM) of 101% and a viability, T/C [1] of 98.1%. It also gave a viability, T/C [2] of 91.4%, a viability, T/C [3] of 95.1% and a viability, T/C [4] of 100%. It also gave a viability, T/C (second compound 0.1 µM, first compound 0.000316 µM) of 109%, a viability, T/C (second compound 0.1 µM, first compound 0.001 µM) of 98.3% and a viability, T/C [5] of 101%. The viability, T/C [6] was 107%, the viability, T/C [7] was 98% and the viability, T/C [8] was 115%. The viability, T/C (second compound 0.316 µM, first compound 0.000316 µM) was 108%, the viability, T/C (second compound 0.316 µM, first compound 0.001 µM) was 97.1% and the viability, T/C [9] was 97.5%. For the same compound, the viability, T/C [10] was 98.5%, the viability, T/C [11] was 110% and the viability, T/C [12] was 105%. The viability, T/C (second compound 1 µM, first compound 0.000316 µM) was 104%, the viability, T/C (second compound 1 µM, first compound 0.001 µM) was 109% and the viability, T/C [13] was 121%. For the same compound, the viability, T/C [14] was 92%, the viability, T/C [15] was 112% and the viability, T/C [16] was 107%. It also gave a viability, T/C (second compound 3.16 µM, first compound 0.000316 µM) of 114%, a viability, T/C (second compound 3.16 µM, first compound 0.001 µM) of 110% and a viability, T/C [17] of 102%. It also gave a viability, T/C [18] of 108%, a viability, T/C [19] of 109% and a viability, T/C [20] of 110%. For the same compound, the viability, T/C (second compound 10 µM, first compound 0.000316 µM) was 168%, the viability, T/C (second compound 10 µM, first compound 0.001 µM) was 206% and the viability, T/C [21] was 176%. The viability, T/C [22] was 177%, the viability, T/C [23] was 174% and the viability, T/C [24] was 168%.
